A short description of this assay: lipid peroxidation assay: protection of linoleic acid from UV light. Particulars: antioxidant at the printed concentration (1.50%, 0.10%, 0.10%, combination 1.70%). The format is biochemical. Here is the method:
The following procedure tests the ability of antioxidants to protect lipids form the damaging effects of UV light. The antioxidants to be tested are morus alba (“Mulberry Concentrate” from Aston Chemicals), magnesium ascorbyl phosphate and panax ginseng (“Phytexcell Panax ginseng” from Croda Chemicals Ltd). The antioxidants were tested individually at a particular concentration and in combination. In the test the antioxidant or combination of antioxidants is mixed with a known skin lipid (linoleic acid) and irradiated using UV light. The quantity of peroxides in each sample is measured colourimetrically after irradiation to assess the level of damage caused by peroxidation of the linoleic acid.
A 1% lipid stock solution is prepared dissolving linoleic in an aqueous solution of octoxynol-9 (Triton X-100). Stock solutions in aqueous TBS buffer of the following antioxidants magnesium ascorbyl phosphate, morus alba and panax ginseng were prepared at 15%, 1.0% and 1.0% respectively. […]
Using a micropipette plate 7.5 μl of each sample is pipetted into 3 wells, i.e. in triplicate, and irradiated with UV light for 40 minutes. […] The reaction that occurs causes a colour change from colourless to blue which is measured colourimetrically at 675 nm. The more peroxides present the darker the blue colouration and the higher the observed absorbance.

Data on one compound can be found in patent publication US7195787B1, “Skincare composition against free radicals” (The Boots Company PLC, priority 1999, dated 2007).

In the case of `O=C1O[C@H]([C@@H](O)CO)C([O-])=C1OP(=O)([O-])[O-].O=C1O[C@H]([C@@H](O)CO)C([O-])=C1OP(=O)([O-])[O-].[Mg+2].[Mg+2].[Mg+2]` [Magnesium ascorbyl phosphate, magnesium ascorbyl phosphate], the Absorbance (675 nm, after 40 minutes UV, 0.5% linoleic acid) was found to be 0.84. Moreover, the “percentage of peroxidation observed when compared to that seen with the irradiated controls” value (40 minutes UV) is on record as above 100%.
